The text below walks through data of patent US20250303006A1, “BIOCOMPATIBLE ANTISEPTIC COMPOSITION CONTAINING 9-HYDROXYCALABAXANTHONE AND/OR RELATED XANTHONES” (UNIVERSITAT DE LES ILLES BALEARS, priority 2022, published 2025).

The subject of one series is S. pyogenes. Kind of series: S. pyogenes culture and proliferation assay. In kind it is cell-based, Streptococcus pyogenes. The note with it: 0.0002% HCX, 24 h. The procedure: S. pyogenes was grown from frozen stocks in Tryptic Soy Broth (TSB) (Scharlab), at 37° C. under aerobic conditions in an orbital shaker (180 rpm). After overnight incubation, 1 mL of bacterial suspensions were incubated with different concentrations of CHX (0.01, 0.005, 0.003, 0.001, 0.0001%) and HCX (0.003, 0.002, 0.001, 0.0002, 0.00002%) for 24 hours at 37° C. under aerobic conditions in an orbital shaker (180 rpm). Bacterial suspension without treatment served as negative control (C−). The optical density (OD) was measured at 600 nm at 0 h and 24 h to determine bacterial proliferation (PowerWave Ht). The bacterial growth rate (μ) was calculated during the exponential growth phase following the equation ln ODt−ln OD0=μ×(t−t0) (n=4). The live/Dead ratio of bacteria was determined using the LIVE/DEAD BacLight bacterial viability kit (Invitrogen), following the manufacturer's instructions. The assays were carried out in triplicate.

Another series concerns C. albicans. Description: Candida albicans culture and proliferation assay. The note with it: 0.003% HCX, 24 h. The series is classed as cell-based. As to the method: C. albicans was grown from frozen stocks in LB broth (Scharlab), at 37° C. under aerobic conditions in an orbital shaker (180 rpm). […] Fungal suspension without treatment served as negative control (C−). […] The fungal growth rate (μ) was calculated during the exponential growth phase following the equation ln ODt−ln OD0=μ×(t−t0) (n=3).

Series [1] deals with human gingival fibroblast cells. Kind of series: LDH cytotoxicity in immortalized human gingival fibroblasts. The series is classed as cell-based. As to the method: Cells were seeded in 48-well plates at a density of 2×10^4 cells/well. When the cells reached confluence, they were treated with different concentrations of HCX, and cytotoxicity was determined.
48 hours after seeding the iHGF cells in 48-well plates, cell inflammation was induced by means of adding 1 μg/ml of P. gingivalis lipopolysaccharide (LPS) (InvivoGen, San Diego, CA, USA) and the cells were treated with different concentrations of HCX (0.00002, 0.0002, 0.002%) in a fibroblast medium with 50 μg/ml of ascorbic acid (Sigma-Aldrich, St. Louis, MO, USA) for 48 hours. Images of the cells were taken with a bright field inverted microscope (Nikon Eclipse TS100) before treatment and 24 hours and 48 hours after treatment.
To estimate the cytotoxicity of the different concentrations of HCX, the presence of lactate dehydrogenase (LDH) in the culture media 48 h after pro-inflammatory stimulation with LPS and treatment with HCX was used as the cell death index. Following the manufacturer's instructions (Cytotoxicity Detection kit, Roche Diagnostics, Mannheim, Germany), LDH activity was determined spectrophotometrically after a 30-minute incubation at room temperature (RT) of 50 μl of culture media and 50 μl of the reaction mixture, measuring nicotinamide adenine dinucleotide (NADH) oxidation at 490 nm in the presence of pyruvate. Results were presented in relation to LDH activity of the media of the cells seeded without treatment (negative control, 0% cell death) and in relation to cells treated with 1% Triton X-100 (positive control, 100% death) using the following equation: Cytotoxicity (%)=[(expected value−negative control)/(positive control−negative control)]×100.
Different hydrogel formulations with and without 0.05% of HCX (HA, GelMa, Alginate and HPMC) and commercial gel containing 0.2% chlorhexidine and unmodified HA (Periokin Hyaluronic 1%, Laboratorios Kin, Commercial HA 0.2% CHX) were used for studies with gingival fibroblasts and S. epidermidis. Cells and bacteria without hydrogels served as negative control (C−). Gels at a concentration of 5% (v/v) were used for cell and bacterial studies.
Immortalized human gingival fibroblasts were cultured like in experiment 1 of section 1.2. The cells were treated with different hydrogel formulations with and without 0.05% of HCX (HA, GelMa, Alginate and HPMC) and commercial gel containing 0.2% chlorhexidine and unmodified HA (Periokin Hyaluronic 1%, Laboratorios Kin, commercial HA 0.2% CHX) in a fibroblast medium for 24 hours (n=4). Cell cytotoxicity was measured, like in experiment 1 of section 1.4.
16.1. […]
Immortalized human gingival fibroblasts were cultured like in experiment 1 of section 1.2. […] Cell cytotoxicity was measured, like in experiment 1 of section 1.4.

Another series has as its system S. epidermidis. Kind of series: S. epidermidis culture and proliferation assay. The series is classed as cell-based, Staphylococcus epidermidis. As to the method:
S. epidermidis 4814 (CECT, Valencia, Spain) were grown from frozen stocks in Luria-Bertani (LB) broth (Scharlab, Sentmenat), at 37° C. under aerobic conditions in an orbital shaker (180 rpm). After an overnight incubation, 1 mL of bacterial suspensions were incubated with different concentrations of HCX (0.003, 0.002, 0.001, 0.0002, 0.00002%) for 24 hours at 37° C. under aerobic conditions in an orbital shaker (180 rpm). Bacterial suspension without treatment served as negative control, and CHX at 0.001% served as positive control for bacterial growth inhibition. The optical density (OD) was measured at 600 nm at 0 h, 10 h and 24 h to determine bacterial proliferation (PowerWave Ht, Biotek instruments, Winooski, VT, USA). Bacterial growth rate (μ) was calculated during the exponential growth phase following the equation ln ODt−ln OD0=μ×(t−t0). Live/Dead ratio of bacteria was determined using the LIVE/DEAD BacLight bacterial viability kit (Invitrogen, Thermo Fisher Scientific, Waltham, MA, USA), following manufacturer's instructions. The assays were carried out in triplicate, with two replicates at each condition (n=6). […]

For `COc1c(O)cc2oc3cc4c(c(O)c3c(=O)c2c1CC=C(C)C)C=CC(C)(C)O4` [HCX, 9-hydroxycalabaxanthone], the bacteria eliminated is 100% with S. pyogenes; 100% with S. epidermidis (0.001% HCX, 10 h); 80% in the series with S. epidermidis (0.003% HCX, 24 h). Besides, the fungal eliminated with C. albicans came out at 22%. Also, in series [1] (HCX 0.00002, 0.0002, 0.002%, 48 h, LPS-stimulated iHGF), the “cytotoxicity evaluated by activity of lactate dehydrogenase (LDH) released into the medium” value is given as “not observed”. Besides, in series [1] (formulated in solution), the “concentration that can be applied to cells and tissues” value was “up to 0.002%”.
